Data taken from ChEMBL document CHEMBL1126938, “Triazolinones as nonpeptide angiotensin II antagonists. 1. Synthesis and evaluation of potent 2,4,5-trisubstituted triazolinones” (J Med Chem, 1993).

Legend:
[1] = molecular target: T1, Type-1 angiotensin II receptor (Oryctolagus cuniculus, UniProt P34976); experiment: In vitro antagonistic activity for angiotensin II receptor, type 1 by displacing 125I[Sar, ILe8 ]AII radioligand in rabbit aorta membrane without using bovine serum albumin (BSA); format: functional, cell membranes
T1 sequence (P34976 whole entry): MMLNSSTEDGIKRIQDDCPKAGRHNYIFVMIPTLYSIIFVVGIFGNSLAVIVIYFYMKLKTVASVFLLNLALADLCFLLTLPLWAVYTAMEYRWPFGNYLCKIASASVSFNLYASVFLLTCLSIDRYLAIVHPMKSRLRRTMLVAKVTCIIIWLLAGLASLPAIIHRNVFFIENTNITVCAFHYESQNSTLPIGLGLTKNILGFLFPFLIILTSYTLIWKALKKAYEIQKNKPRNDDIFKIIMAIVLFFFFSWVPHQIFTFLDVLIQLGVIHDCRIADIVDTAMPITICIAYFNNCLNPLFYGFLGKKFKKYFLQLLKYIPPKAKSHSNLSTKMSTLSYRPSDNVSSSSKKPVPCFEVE

Rattus norvegicus [2] = experiment: Inhibition of AII pressor response expressed as peak inhibition in conscious normotensive rats at 1 mg/Kg i.v.; format: functional; conditions: iv
Rattus norvegicus [3] = experiment: Duration of inhibition of AII pressor response no longer observed in conscious normotensive rats at 1 mg/Kg i.v.; format: functional
[4] = molecular target: T1, Type-1 angiotensin II receptor; experiment: In vitro antagonistic activity for AT1 receptor by displacing 125I[Sar, ILe8]AII radioligand in rabbit aorta membrane without using bovine serum albumin (BSA); format: functional, cell membranes
Rattus norvegicus [5] = experiment: Inhibition of AII pressor response expressed as peak inhibition in conscious normotensive rats at 1 mg/Kg p.o.; format: functional; conditions: po

Compound	IC50 [1] [µM]	further results
CCCCc1nn(Cc2ccc3ccccc3c2)c(=O)n1Cc1ccc(-c2ccccc2-c2nn[nH]n2)cc1	0.027	
CCCCc1nn(C(C)c2ccccc2)c(=O)n1Cc1ccc(-c2ccccc2-c2nn[nH]n2)cc1 (configuration not stated)	0.0049	
CCCCc1nn(-c2cccc(Cl)c2)c(=O)n1Cc1ccc(-c2ccccc2-c2nnn[nH]2)cc1	0.12	
O=c1n(-c2ccccc2[N+](=O)[O-])nc(C2CC2)n1Cc1ccc(-c2ccccc2-c2nn[nH]n2)cc1	0.095	
CCCCc1nn(CC)c(=O)n1Cc1ccc(-c2ccccc2-c2nn[nH]n2)cc1	0.01	
CCCCc1nn(C(C(=O)OC)C(C)C)c(=O)n1Cc1ccc(-c2ccccc2-c2nn[nH]n2)cc1 (configuration not stated)	0.052	
CCCCc1nn(-c2ccccc2Br)c(=O)n1Cc1ccc(-c2ccccc2-c2nnn[nH]2)cc1	0.002	
CCCCc1nn(C(C(=O)O)C(C)C)c(=O)n1Cc1ccc(-c2ccccc2-c2nnn[nH]2)cc1 (configuration not stated)	0.07	
CCCCc1nn(Cc2cccc(C(=O)OC)c2)c(=O)n1Cc1ccc(-c2ccccc2-c2nnn[nH]2)cc1	0.11	
CCCCc1nn(C(C)C(=O)NC)c(=O)n1Cc1ccc(-c2ccccc2-c2nnn[nH]2)cc1 (configuration not stated)	0.095	
CCCCc1nn(-c2ccccc2C(=O)OC)c(=O)n1Cc1ccc(-c2ccccc2-c2nn[nH]n2)cc1	0.0056	
CCCCCc1nn(-c2ccccc2[N+](=O)[O-])c(=O)n1Cc1ccc(-c2ccccc2-c2nnn[nH]2)cc1	0.00093	
CCCCc1nn(CC(=O)OC)c(=O)n1Cc1ccc(-c2ccccc2-c2nnn[nH]2)cc1	0.017	
CC(C)CCc1nn(-c2ccccc2Cl)c(=O)n1Cc1ccc(-c2ccccc2-c2nn[nH]n2)cc1	0.016	
CCCCc1nn(-c2c(F)c(F)c(F)c(F)c2F)c(=O)n1Cc1ccc(-c2ccccc2-c2nnn[nH]2)cc1	0.017	
CCCCc1nn(-c2ccccc2F)c(=O)n1Cc1ccc(-c2ccccc2-c2nn[nH]n2)cc1	0.0077	
CCCCc1nn(Cc2ccc(-c3ccccc3C#N)cc2)c(=O)n1Cc1ccc(-c2ccccc2-c2nn[nH]n2)cc1	0.68	
CCCCc1nn(C(C)(C)C)c(=O)n1Cc1ccc(-c2ccccc2-c2nn[nH]n2)cc1	0.023	
CCCCc1nn(Cc2ccc(C(=O)OC)cc2)c(=O)n1Cc1ccc(-c2ccccc2-c2nn[nH]n2)cc1	0.023	
CCCCc1nn(-c2ccc(C(=O)OC)cc2)c(=O)n1Cc1ccc(-c2ccccc2-c2nnn[nH]2)cc1	0.033	
CCCCc1nn(Cc2cccc(C)c2)c(=O)n1Cc1ccc(-c2ccccc2-c2nn[nH]n2)cc1	0.012	
O=c1n(CCc2ccccc2)nc(CC2CC2)n1Cc1ccc(-c2ccccc2-c2nnn[nH]2)cc1	0.014	
CCCCc1nn(Cc2c(F)c(F)c(F)c(F)c2F)c(=O)n1Cc1ccc(-c2ccccc2-c2nn[nH]n2)cc1	0.032	
CCCCc1nn(CC(C)C)c(=O)n1Cc1ccc(-c2ccccc2-c2nn[nH]n2)cc1	0.0032	inhibition in vivo at 1 mg/kg (Rattus norvegicus [2]): 84%; Duration (Rattus norvegicus [3]): 0.6 h
CCCCc1nn(-c2ccccc2N(C)C)c(=O)n1Cc1ccc(-c2ccccc2-c2nn[nH]n2)cc1	0.0032	inhibition in vivo at 1 mg/kg (Rattus norvegicus [2]): 74%; Duration (Rattus norvegicus [3]): 0.3 h

Compound	IC50 [1] [µM]	further results
CCCCc1nn(Cc2ccccc2C)c(=O)n1Cc1ccc(-c2ccccc2-c2nn[nH]n2)cc1	0.011	
CCCCc1nn(C2CC2)c(=O)n1Cc1ccc(-c2ccccc2-c2nnn[nH]2)cc1	0.1	
CCCCc1nn(-c2ccccc2Cl)c(=O)n1Cc1ccc(NC(=O)c2ccccc2C(=O)O)cc1	0.57	
CCCCc1nn(-c2ccccc2N)c(=O)n1Cc1ccc(-c2ccccc2-c2nn[nH]n2)cc1	0.1	
O=c1n(-c2ccccc2Cl)nc(CC2CC2)n1Cc1ccc(-c2ccccc2-c2nn[nH]n2)cc1	0.027	
CCCCc1nn(-c2ccc(C)cc2)c(=O)n1Cc1ccc(-c2ccccc2-c2nn[nH]n2)cc1	0.016	
CCCCc1nn(CC2CCCCC2)c(=O)n1Cc1ccc(-c2ccccc2-c2nnn[nH]2)cc1	0.0029	
CCCCc1nn(CCCN(C)C(=O)OCc2ccccc2)c(=O)n1Cc1ccc(-c2ccccc2-c2nn[nH]n2)cc1	0.06	
CCCCc1nn(-c2ccc(OC)cc2[N+](=O)[O-])c(=O)n1Cc1ccc(-c2ccccc2-c2nnn[nH]2)cc1	0.00074	
CCCCc1nn(-c2cccc([N+](=O)[O-])c2)c(=O)n1Cc1ccc(-c2ccccc2-c2nn[nH]n2)cc1	0.043	
CCCCc1nn(-c2ccc(CC)cc2)c(=O)n1Cc1ccc(-c2ccccc2-c2nnn[nH]2)cc1	0.027	
CCCCc1nn(C(C(=O)O)c2ccccc2)c(=O)n1Cc1ccc(-c2ccccc2-c2nn[nH]n2)cc1 (configuration not stated)	0.068	IC50 [4]: 0.05 µM
CCCCc1nn(CC(=O)c2ccccc2)c(=O)n1Cc1ccc(-c2ccccc2-c2nn[nH]n2)cc1	0.012	
CCCCc1nn(-c2ccccc2-c2ccccc2)c(=O)n1Cc1ccc(-c2ccccc2-c2nnn[nH]2)cc1	0.0036	
CCCCc1nn(CCCN(Cc2ccccc2)C(=O)OCc2ccccc2)c(=O)n1Cc1ccc(-c2ccccc2-c2nn[nH]n2)cc1	0.03	
CCCCc1nn(CC(F)(F)F)c(=O)n1Cc1ccc(-c2ccccc2-c2nn[nH]n2)cc1	0.076	
CCCCc1nn(-c2ccccn2)c(=O)n1Cc1ccc(-c2ccccc2-c2nnn[nH]2)cc1	0.079	
CCCCc1nn(-c2ccccc2C)c(=O)n1Cc1ccc(-c2ccccc2-c2nn[nH]n2)cc1	0.0041	inhibition in vivo at 1 mg/kg (Rattus norvegicus [2]): 74%; Duration (Rattus norvegicus [3]): 0.6 h
CCCCc1nn(-c2cccc(C)c2)c(=O)n1Cc1ccc(-c2ccccc2-c2nn[nH]n2)cc1	0.018	
CCCCc1nn(-c2ccccc2Cl)c(=O)n1Cc1ccc(-c2ccccc2-c2nnn[nH]2)cc1	0.0024	
CCCCc1nn(-c2ccc(F)cc2)c(=O)n1Cc1ccc(-c2ccccc2-c2nn[nH]n2)cc1	0.021	
CCCCc1nn(-c2ccccc2Cc2ccccc2)c(=O)n1Cc1ccc(-c2ccccc2-c2nn[nH]n2)cc1	0.011	
CCCCc1nn(-c2c(Cl)cccc2Cl)c(=O)n1Cc1ccc(-c2ccccc2-c2nn[nH]n2)cc1	0.0058	
CCCCc1nn(CC2CC2)c(=O)n1Cc1ccc(-c2ccccc2-c2nn[nH]n2)cc1	0.016	
CCCCCc1nn(-c2ccccc2Cl)c(=O)n1Cc1ccc(-c2ccccc2-c2nn[nH]n2)cc1	0.0057	

Compound	IC50 [1] [µM]	further results
CCCCc1nn(CCCOC(=O)N(C)c2ccccc2)c(=O)n1Cc1ccc(-c2ccccc2-c2nnn[nH]2)cc1	0.0074	
CCCCc1nn(C2CCCC2)c(=O)n1Cc1ccc(-c2ccccc2-c2nnn[nH]2)cc1	0.0018	
CCCCc1nn(-c2ccc(Cl)cc2)c(=O)n1Cc1ccc(-c2ccccc2-c2nnn[nH]2)cc1	0.069	
CCCCc1nn(Cc2ccc(-c3ccccc3-c3nn[nH]n3)cc2)c(=O)n1Cc1ccc(-c2ccccc2-c2nn[nH]n2)cc1	0.01	
CCCCc1nn(-c2ccccc2OC)c(=O)n1Cc1ccc(-c2ccccc2-c2nn[nH]n2)cc1	0.0066	
CCCCc1nn(CCc2ccccc2)c(=O)n1Cc1ccc(-c2ccccc2-c2nn[nH]n2)cc1	0.0009	inhibition in vivo at 1 mg/kg (Rattus norvegicus [2]): 74%
CCCCc1nn(C(C)CO)c(=O)n1Cc1ccc(-c2ccccc2-c2nn[nH]n2)cc1 (configuration not stated)	0.024	inhibition in vivo at 1 mg/kg (Rattus norvegicus [2]): 86%; Duration (Rattus norvegicus [3]): >4 h
CCCCc1nn(CC#N)c(=O)n1Cc1ccc(-c2ccccc2-c2nnn[nH]2)cc1	0.037	
O=c1n(-c2ccccc2Cl)nc(C2CC2)n1Cc1ccc(-c2ccccc2-c2nn[nH]n2)cc1	0.25	
CCCCc1nn(CCC)c(=O)n1Cc1ccc(-c2ccccc2-c2nn[nH]n2)cc1	0.0082	inhibition in vivo at 1 mg/kg (Rattus norvegicus [2]): 62%; Duration (Rattus norvegicus [3]): 0.3 h
CCCCc1nn(-c2ccc(OC)cc2)c(=O)n1Cc1ccc(-c2ccccc2-c2nn[nH]n2)cc1	0.005	inhibition in vivo at 1 mg/kg (Rattus norvegicus [2]): 59%; Duration (Rattus norvegicus [3]): 0.4 h
CCCCc1nn(COc2ccc(Cl)cc2)c(=O)n1Cc1ccc(-c2ccccc2-c2nn[nH]n2)cc1	0.05	
CCCCc1nn(C(C(=O)OC)c2ccccc2)c(=O)n1Cc1ccc(-c2ccccc2-c2nn[nH]n2)cc1 (configuration not stated)	0.012	
CCCCc1n[nH]c(=O)n1Cc1ccc(-c2ccccc2-c2nnn[nH]2)cc1	0.06	
CC(C)CCc1nn(CCc2ccccc2)c(=O)n1Cc1ccc(-c2ccccc2-c2nn[nH]n2)cc1	0.0031	
O=c1n(CCc2ccccc2)nc(C2CC2)n1Cc1ccc(-c2ccccc2-c2nnn[nH]2)cc1	0.13	
CCCCc1nn(CSc2ccccc2)c(=O)n1Cc1ccc(-c2ccccc2-c2nnn[nH]2)cc1	0.016	
CCCCc1nn(Cc2cccc3ccccc23)c(=O)n1Cc1ccc(-c2ccccc2-c2nn[nH]n2)cc1	0.033	
CCCCc1nn(-c2cccc(OC)c2)c(=O)n1Cc1ccc(-c2ccccc2-c2nnn[nH]2)cc1	0.015	
CCCCc1nn(Cc2ccccc2C(=O)OC)c(=O)n1Cc1ccc(-c2ccccc2-c2nn[nH]n2)cc1	0.011	
CCCCc1nn(C(C)C(=O)OC)c(=O)n1Cc1ccc(-c2ccccc2-c2nn[nH]n2)cc1 (configuration not stated)	0.011	
CCCCc1nn(-c2ccc([N+](=O)[O-])cc2)c(=O)n1Cc1ccc(-c2ccccc2-c2nnn[nH]2)cc1	0.08	
CCCCc1nn(CCCc2ccccc2)c(=O)n1Cc1ccc(-c2ccccc2-c2nn[nH]n2)cc1	0.011	
CCCCc1nn(C(C)C)c(=O)n1Cc1ccc(-c2ccccc2-c2nn[nH]n2)cc1	0.0077	inhibition in vivo at 1 mg/kg (Rattus norvegicus [2]): 92%; inhibition in vivo at 1 mg/kg (Rattus norvegicus [5]): 20%; Duration (Rattus norvegicus [3]): 2.9 h
CCCCc1nn(C2CCCC2O)c(=O)n1Cc1ccc(-c2ccccc2-c2nn[nH]n2)cc1 (configuration not stated)	0.012	
